Results as given in patent US12077503B2, “Substituted cyclic amides and their use as herbicides” (FMC CORPORATION, priority 2015, dated 2024).

Legend:
Format in all cases: in vivo
Kochia (Kochia scoparia) [1] = experiment: Test A preemergence; conditions: Bassia scoparia, pre-emergence, 240 h, Preemergence; for pest or weed control at 31 g/ha: 31 g ai/ha, 0 to 100 scale where 0 is no effect and 100 is complete control, read-out: Kochia plant response rating; for pest or weed control at 125 g/ha: 125 g ai/ha, 0 to 100 scale (0 no effect, 100 complete control), read-out: Plant response rating, Kochia
Outline: (§1)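 Ratings of 0 (no effect) to 100 (complete control) come from visual comparison with untreated controls roughly 10 d after treatment. Test chemicals, formulated in a non-phytotoxic solvent mixture with surfactant, were applied either as a preemergence directed soil spray on seeded soil or postemergence to one- to two-leaf plants 2 to 10 cm tall.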

[2] = system: ragweed (common ragweed, Ambrosia elatior); experiment: Test A preemergence; conditions: Ambrosia artemisiifolia, pre-emergence, 240 h, Preemergence; for pest or weed control at 31 g/ha: 31 g ai/ha, 0 to 100 scale where 0 is no effect and 100 is complete control, read-out: Ragweed plant response rating; for pest or weed control at 125 g/ha: 125 g ai/ha, 0 to 100 scale (0 no effect, 100 complete control), read-out: Plant response rating, Ragweed
Outline: as §1

[3] = system: ryegrass, Italian (Italian ryegrass, Lolium multiflorum); experiment: Test A preemergence; conditions: Lolium multiflorum, pre-emergence, 240 h, Preemergence; for pest or weed control at 31 g/ha: 31 g ai/ha, 0 to 100 scale where 0 is no effect and 100 is complete control, read-out: Ryegrass, Italian plant response rating; for pest or weed control at 125 g/ha: 125 g ai/ha, 0 to 100 scale (0 no effect, 100 complete control), read-out: Plant response rating, Ryegrass, Italian
Outline: as §1

[4] = system: giant foxtail (Setaria faberii); experiment: Test A preemergence; conditions: Setaria faberi, pre-emergence, 240 h, Preemergence; for pest or weed control at 31 g/ha: 31 g ai/ha, 0 to 100 scale where 0 is no effect and 100 is complete control, read-out: Foxtail, Giant plant response rating; for pest or weed control at 125 g/ha: 125 g ai/ha, 0 to 100 scale (0 no effect, 100 complete control), read-out: Plant response rating, Foxtail, Giant
Outline: as §1

[5] = system: pigweed (Amaranthus retroflexus); experiment: Test A preemergence; conditions: Amaranthus retroflexus, pre-emergence, 240 h, Preemergence; for pest or weed control at 31 g/ha: 31 g ai/ha, 0 to 100 scale where 0 is no effect and 100 is complete control, read-out: Pigweed plant response rating; for pest or weed control at 125 g/ha: 125 g ai/ha, 0 to 100 scale (0 no effect, 100 complete control), read-out: Plant response rating, Pigweed
[6] = system: barnyardgrass (Echinochloa crus-galli); experiment: Test A preemergence; conditions: Echinochloa crus-galli, pre-emergence, 240 h, Preemergence; for pest or weed control at 31 g/ha: 31 g ai/ha, 0 to 100 scale where 0 is no effect and 100 is complete control, read-out: Barnyardgrass plant response rating; for pest or weed control at 125 g/ha: 125 g ai/ha, 0 to 100 scale (0 no effect, 100 complete control), read-out: Plant response rating, Barnyardgrass
Outline: as §1

[7] = system: ducksalad (Heteranthera limosa); experiment: Test B flooded paddy test; conditions: Heteranthera limosa, 360 h, Flood, 250 g ai/ha; visually evaluated after 13 to 15 d; read-out: Plant response rating, Ducksalad (0 to 100 scale where 0 is no effect and 100 is complete control)
Outline: (§2)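 Compound goes directly into floodwater once pots are flooded 3 cm above soil, targeting plants at two leaves; the water depth is then held for the test duration. Plants sit 13–15 d in a greenhouse and are rated visually, 100 denoting complete control.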

rice (Oryra sativa) = experiment: Test B flooded paddy test; conditions: Oryza sativa, 360 h, Flood, 250 g ai/ha; visually evaluated after 13 to 15 d; read-out: Plant response rating, Rice (0 to 100 scale where 0 is no effect and 100 is complete control)
Outline: as §2

[8] = system: barnyardgrass (Echinochloa crus-galli); experiment: Test B flooded paddy test; conditions: Echinochloa crus-galli, 360 h, Flood, 250 g ai/ha; visually evaluated after 13 to 15 d; read-out: Plant response rating, Barnyardgrass (0 to 100 scale where 0 is no effect and 100 is complete control)
Outline: as §2

[9] = system: sedge, umbrella (small-flower umbrella sedge, Cyperus difformis); experiment: Test B flooded paddy test; conditions: Cyperus difformis, 360 h, Flood, 250 g ai/ha; visually evaluated after 13 to 15 d; read-out: Plant response rating, Sedge, Umbrella (0 to 100 scale where 0 is no effect and 100 is complete control)
Outline: as §2

[10] = system: wheat (Triticum aestivum); experiment: Test A postemergence; conditions: Triticum aestivum, post-emergence, 240 h, Postemergence, read-out: Wheat plant response rating (0 to 100 scale); for plant injury at 125 g/ha: 125 g ai/ha, visual rating about 10 d after treatment; for plant injury at 31 g/ha: 31 g ai/ha, 0 is no effect, 100 is complete control
Outline: as §1

Kochia (Kochia scoparia) [11] = experiment: Test A postemergence; conditions: Bassia scoparia, post-emergence, 240 h, Postemergence, read-out: Kochia plant response rating (0 to 100 scale); for pest or weed control at 125 g/ha: 125 g ai/ha, visual rating about 10 d after treatment; for pest or weed control at 31 g/ha: 31 g ai/ha, 0 is no effect, 100 is complete control
Outline: as §1

corn (Zea mays) = experiment: Test A postemergence; conditions: Zea mays, post-emergence, 240 h, Postemergence, read-out: Corn plant response rating (0 to 100 scale); for plant injury at 125 g/ha: 125 g ai/ha, visual rating about 10 d after treatment; for plant injury at 31 g/ha: 31 g ai/ha, 0 is no effect, 100 is complete control
Outline: as §1

[12] = system: ragweed (common ragweed, Ambrosia elatior); experiment: Test A postemergence; conditions: Ambrosia artemisiifolia, post-emergence, 240 h, Postemergence, read-out: Ragweed plant response rating (0 to 100 scale); for pest or weed control at 125 g/ha: 125 g ai/ha, visual rating about 10 d after treatment; for pest or weed control at 31 g/ha: 31 g ai/ha, 0 is no effect, 100 is complete control
Outline: as §1

[13] = system: ryegrass, Italian (Italian ryegrass, Lolium multiflorum); experiment: Test A postemergence; conditions: Lolium multiflorum, post-emergence, 240 h, Postemergence, read-out: Ryegrass, Italian plant response rating (0 to 100 scale); for pest or weed control at 125 g/ha: 125 g ai/ha, visual rating about 10 d after treatment; for pest or weed control at 31 g/ha: 31 g ai/ha, 0 is no effect, 100 is complete control
Outline: as §1

[14] = system: giant foxtail (Setaria faberii); experiment: Test A postemergence; conditions: Setaria faberi, post-emergence, 240 h, Postemergence, read-out: Foxtail, Giant plant response rating (0 to 100 scale); for pest or weed control at 125 g/ha: 125 g ai/ha, visual rating about 10 d after treatment; for pest or weed control at 31 g/ha: 31 g ai/ha, 0 is no effect, 100 is complete control
Outline: as §1

[15] = system: blackgrass (Alopecurus myosuroides); experiment: Test A postemergence; conditions: Alopecurus myosuroides, post-emergence, 240 h, Postemergence, read-out: Blackgrass plant response rating (0 to 100 scale); for pest or weed control at 125 g/ha: 125 g ai/ha, visual rating about 10 d after treatment; for pest or weed control at 31 g/ha: 31 g ai/ha, 0 is no effect, 100 is complete control
Outline: as §1

[16] = system: pigweed (Amaranthus retroflexus); experiment: Test A postemergence; conditions: Amaranthus retroflexus, post-emergence, 240 h, Postemergence, read-out: Pigweed plant response rating (0 to 100 scale); for pest or weed control at 125 g/ha: 125 g ai/ha, visual rating about 10 d after treatment; for pest or weed control at 31 g/ha: 31 g ai/ha, 0 is no effect, 100 is complete control
Outline: as §1

[17] = system: barnyardgrass (Echinochloa crus-galli); experiment: Test A postemergence; conditions: Echinochloa crus-galli, post-emergence, 240 h, Postemergence; for pest or weed control at 125 g/ha: 125 g ai/ha, visual rating about 10 d after treatment, read-out: Barnyardgrass plant response rating (0 to 100 scale, 0 no effect, 100 complete control); for pest or weed control at 31 g/ha: 31 g ai/ha, 0 is no effect, 100 is complete control, read-out: Barnyardgrass plant response rating (0 to 100 scale)
Outline: as §1

Row | Structure (SMILES) | pest or weed control at 31 g/ha (Kochia (Kochia scoparia) [1]) | pest or weed control at 125 g/ha (Kochia (Kochia scoparia) [1]) | pest or weed control at 31 g/ha [2] | pest or weed control at 125 g/ha [2] | pest or weed control at 31 g/ha [3] | pest or weed control at 125 g/ha [3] | pest or weed control at 31 g/ha [4] | pest or weed control at 125 g/ha [4] | pest or weed control at 31 g/ha [5] | pest or weed control at 125 g/ha [5] | pest or weed control at 31 g/ha [6] | pest or weed control at 125 g/ha [6] | pest or weed control at 250 g/ha [7] | pest or weed control at 250 g/ha (rice (Oryra sativa)) | pest or weed control at 250 g/ha [8] | pest or weed control at 250 g/ha [9] | plant injury at 125 g/ha [10] | plant injury at 31 g/ha [10] | pest or weed control at 125 g/ha (Kochia (Kochia scoparia) [11]) | pest or weed control at 31 g/ha (Kochia (Kochia scoparia) [11]) | further results
1 | COc1ccc([C@H]2CN(C)C(=O)[C@@H]2C(=O)Nc2ccccc2F)cc1 [Compound 1342] | 0% | 0% | 0% | 0% | 0% | 0% | 90% | 100% | 0% | 20% | 60% | 90% | 85% | 0% | 50% | 0% | 0% | 0% | 20% | 0% | plant injury at 125 g/ha (corn (Zea mays)): 0%; plant injury at 31 g/ha (corn (Zea mays)): 0%; pest or weed control at 125 g/ha [12]: 0%; pest or weed control at 31 g/ha [12]: 0%; pest or weed control at 125 g/ha [13]: 0%; pest or weed control at 31 g/ha [13]: 0%; pest or weed control at 125 g/ha [14]: 70%; pest or weed control at 31 g/ha [14]: 20%; pest or weed control at 125 g/ha [15]: 0%; pest or weed control at 31 g/ha [15]: 0%; pest or weed control at 125 g/ha [16]: 0%; pest or weed control at 31 g/ha [16]: 0%; pest or weed control at 125 g/ha [17]: 90%; pest or weed control at 31 g/ha [17]: 20%
2 | CN1C[C@H](c2ccc3c(c2)OC(F)(F)O3)[C@@H](C(=O)Nc2cccnc2F)C1=O [Compound 1346] | 10% | 80% | 0% | 90% | 10% | 30% | 90% | 100% | 80% | 90% | 40% | 90% | 90% | 0% | 90% | 0% | 60% | 30% | 30% | 0% | plant injury at 125 g/ha (corn (Zea mays)): 40%; plant injury at 31 g/ha (corn (Zea mays)): 0%; pest or weed control at 125 g/ha [12]: 0%; pest or weed control at 31 g/ha [12]: 0%; pest or weed control at 125 g/ha [13]: 20%; pest or weed control at 31 g/ha [13]: 0%; pest or weed control at 125 g/ha [14]: 90%; pest or weed control at 31 g/ha [14]: 60%; pest or weed control at 125 g/ha [15]: 20%; pest or weed control at 31 g/ha [15]: 30%; pest or weed control at 125 g/ha [16]: 20%; pest or weed control at 31 g/ha [16]: 0%; pest or weed control at 125 g/ha [17]: 80%; pest or weed control at 31 g/ha [17]: 60%
3 | CN1C[C@H](c2ccc3c(c2)OC(F)(F)O3)[C@@H](C(=O)Nc2ccccc2C(F)(F)F)C1=O [Compound 1352] | 20% | 60% | 0% | 30% | 0% | 40% | 100% | 100% | 0% | 80% | 80% | 90% | 70% | 0% | 60% | 0% | 20% | 0% | 0% | 0% | plant injury at 125 g/ha (corn (Zea mays)): 0%; plant injury at 31 g/ha (corn (Zea mays)): 0%; pest or weed control at 125 g/ha [12]: 0%; pest or weed control at 31 g/ha [12]: 0%; pest or weed control at 125 g/ha [13]: 0%; pest or weed control at 31 g/ha [13]: 0%; pest or weed control at 125 g/ha [14]: 80%; pest or weed control at 31 g/ha [14]: 60%; pest or weed control at 125 g/ha [15]: 30%; pest or weed control at 31 g/ha [15]: 0%; pest or weed control at 125 g/ha [16]: 0%; pest or weed control at 31 g/ha [16]: 0%; pest or weed control at 125 g/ha [17]: 60%; pest or weed control at 31 g/ha [17]: 60%
